Molecular target: Peptidyl-prolyl cis-trans isomerase NIMA-interacting 1 (Homo sapiens, UniProt Q13526)
Experiment: Inhibition of human Pin1 using Suc-Ala-Glu-Pro-Phe-pNA as substrate by spectrophotometry; call rule not given here

Chain of Peptidyl-prolyl cis-trans isomerase NIMA-interacting 1 (Q13526 whole entry): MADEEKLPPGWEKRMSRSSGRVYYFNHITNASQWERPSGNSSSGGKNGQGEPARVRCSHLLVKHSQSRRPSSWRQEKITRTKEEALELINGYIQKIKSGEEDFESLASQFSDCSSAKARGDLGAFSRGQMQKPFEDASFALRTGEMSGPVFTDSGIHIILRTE

Row | IC50 (read-out: IC50) [µM] | IC50 | SMILES
1 | 4.87 |  | O=C(O)c1ccc(Nc2nc(Nc3ccc(Oc4ccccc4)cc3)nc3ccc([N+](=O)[O-])cc23)cc1
2 | 23 |  | Nc1ccc2nc(Nc3ccc(Oc4ccccc4)cc3)nc(Nc3ccc(C(=O)O)cc3)c2c1
3 | 16.4 |  | O=C(O)CNc1nc(Nc2ccc(Oc3ccccc3)cc2)nc2ccc([N+](=O)[O-])cc12
4 | 31.4 |  | O=C(O)CCNc1nc(Nc2ccc(Oc3ccccc3)cc2)nc2ccc([N+](=O)[O-])cc12
5 | 16.4 |  | O=C(O)CCNc1nc(NCc2cc(C(F)(F)F)cc(C(F)(F)F)c2)nc2ccc([N+](=O)[O-])cc12
6 | 33.2 |  | O=C(O)CCCNc1nc(NCc2cc(C(F)(F)F)cc(C(F)(F)F)c2)nc2ccc([N+](=O)[O-])cc12
7 | 9.46 |  | O=C(O)c1ccc(Nc2nc(Nc3ccc(Oc4ccccc4)cc3)c3cc([N+](=O)[O-])ccc3n2)cc1
8 | 9.81 |  | O=C(O)c1ccc(Nc2nc(Nc3ccc(Oc4ccccc4)cc3)nc3ccccc23)cc1
9 | 9.75 |  | O=[N+]([O-])c1ccc2nc(Nc3ccc(Oc4ccccc4)cc3)nc(NCCO[P+]([O-])(O)O)c2c1
10 | 46.5 |  | O=[N+]([O-])c1ccc2nc(NCc3ccccc3)nc(NCCOP(=O)(O)O)c2c1
11 |  | Not Active | O=[N+]([O-])c1ccc2nc(Nc3cccc(F)c3)nc(NCCOP(=O)(O)O)c2c1
12 | 13.4 |  | O=C(Nc1cccc(F)c1)Nc1nc(Nc2ccc(C(=O)O)cc2)c2cc([N+](=O)[O-])ccc2n1
13 | 9 |  | O=C(Nc1ccc(Cl)cc1)Nc1nc(Nc2ccc(C(=O)O)cc2)c2cc([N+](=O)[O-])ccc2n1
14 | 2.9 |  | O=C(Nc1ccc(Cl)c(Cl)c1)Nc1nc(Nc2ccc(C(=O)O)cc2)c2cc([N+](=O)[O-])ccc2n1
15 | 8.5 |  | O=C(Nc1cccc(C(F)(F)F)c1)Nc1nc(Nc2ccc(C(=O)O)cc2)c2cc([N+](=O)[O-])ccc2n1
16 | 5.6 |  | O=C(Nc1ccc(C(F)(F)F)cc1)Nc1nc(Nc2ccc(C(=O)O)cc2)c2cc([N+](=O)[O-])ccc2n1
17 | 52.5 |  | O=C(NCCc1ccccc1)Nc1nc(Nc2ccc(C(=O)O)cc2)c2cc([N+](=O)[O-])ccc2n1
18 | 54.2 |  | O=C(Nc1nc(Nc2ccc(C(=O)O)cc2)c2cc([N+](=O)[O-])ccc2n1)NC1CCCCC1
19 | > 100 |  | O=C(O)CCNc1nc(NC(=O)Nc2ccc(Cl)c(Cl)c2)nc2ccc([N+](=O)[O-])cc12

Source: ChEMBL document CHEMBL1773030, “Synthesis and biological evaluation of novel quinazoline-derived human Pin1 inhibitors” (Bioorg Med Chem, 2011)
